According to BindingDB's records for doi:10.3109/14756366.2013.765417 (Msa University, 2014):

Experiments:
[1] = molecular target: Receptor tyrosine-protein kinase erbB-2 (Homo sapiens, UniProt P04626); experiment: In Vitro Tyrosine Kinase Enzyme Assay
Experimental: (§1) Protein kinase assays were performed at ambient temperature for 20-40 min (depending on the target) in a final volume of 25 μl according to the following assay reaction recipe: […] of diluted active protein kinase target (~10-50 nM final protein concentration in the assay), 2.5 μl of peptide substrate, 3. μl of kinase assay buffer, 5 μl of compound or 10% DMSO, and 5 μl of 33P-ATP (250 μM stock solution, 0.8 mCi). The assay was initiated by the addition of 33P-ATP and the reaction mixture was incubated at ambient temperature for 20-40 min, depending on the protein kinase target. After the incubation period, the assay was terminated by spotting 10 μl of the reaction mixture onto Multiscreen phosphocellulose P81 plate. The Multiscreen phosphocellulose P81 plate was washed three times for approximately 15 min each in a 1% phosphoric acid solution. The radioactivity on the P81 plate (EMD Millipore Corporation, Billerica, MA) was counted in the presence of scintillation fluid in a Trilux scintillation counter (GMI Inc., Ramsey, MN).

[2] = molecular target: Epidermal growth factor receptor (Homo sapiens, UniProt P00533); experiment: In Vitro Tyrosine Kinase Enzyme Assay
Experimental: as §1

Receptor tyrosine-protein kinase erbB-2, sequence (P04626 whole entry): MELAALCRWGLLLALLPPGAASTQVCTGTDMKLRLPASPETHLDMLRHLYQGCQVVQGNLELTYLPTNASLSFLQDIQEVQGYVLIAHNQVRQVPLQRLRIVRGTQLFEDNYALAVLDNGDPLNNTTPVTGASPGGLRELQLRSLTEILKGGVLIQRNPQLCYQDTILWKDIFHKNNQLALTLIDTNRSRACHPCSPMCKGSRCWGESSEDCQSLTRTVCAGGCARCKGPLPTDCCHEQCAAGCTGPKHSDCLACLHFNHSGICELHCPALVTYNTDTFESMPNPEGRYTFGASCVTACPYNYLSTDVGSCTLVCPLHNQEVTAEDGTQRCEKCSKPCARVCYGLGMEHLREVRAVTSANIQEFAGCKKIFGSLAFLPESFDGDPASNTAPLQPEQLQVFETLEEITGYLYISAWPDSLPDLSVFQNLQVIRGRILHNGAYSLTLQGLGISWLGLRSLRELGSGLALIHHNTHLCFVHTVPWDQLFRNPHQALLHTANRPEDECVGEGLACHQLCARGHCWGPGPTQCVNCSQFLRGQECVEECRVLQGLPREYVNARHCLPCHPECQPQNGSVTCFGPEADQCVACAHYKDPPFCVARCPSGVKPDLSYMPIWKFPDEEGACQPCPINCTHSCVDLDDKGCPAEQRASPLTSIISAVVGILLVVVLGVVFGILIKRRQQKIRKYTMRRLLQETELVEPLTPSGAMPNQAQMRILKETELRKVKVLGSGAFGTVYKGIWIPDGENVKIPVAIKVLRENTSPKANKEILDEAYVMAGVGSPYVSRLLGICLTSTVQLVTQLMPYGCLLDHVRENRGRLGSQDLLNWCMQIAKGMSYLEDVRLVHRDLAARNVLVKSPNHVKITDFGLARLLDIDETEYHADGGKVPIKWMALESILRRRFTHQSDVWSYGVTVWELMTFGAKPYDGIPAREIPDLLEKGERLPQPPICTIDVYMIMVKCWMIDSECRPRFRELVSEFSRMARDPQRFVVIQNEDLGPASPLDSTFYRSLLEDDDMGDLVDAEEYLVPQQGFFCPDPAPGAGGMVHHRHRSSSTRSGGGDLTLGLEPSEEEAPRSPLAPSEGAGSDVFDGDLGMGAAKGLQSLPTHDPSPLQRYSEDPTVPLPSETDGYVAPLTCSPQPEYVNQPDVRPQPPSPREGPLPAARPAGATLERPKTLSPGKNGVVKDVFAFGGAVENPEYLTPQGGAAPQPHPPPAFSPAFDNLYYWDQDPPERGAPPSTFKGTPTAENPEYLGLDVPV
Epidermal growth factor receptor, sequence (P00533 whole entry): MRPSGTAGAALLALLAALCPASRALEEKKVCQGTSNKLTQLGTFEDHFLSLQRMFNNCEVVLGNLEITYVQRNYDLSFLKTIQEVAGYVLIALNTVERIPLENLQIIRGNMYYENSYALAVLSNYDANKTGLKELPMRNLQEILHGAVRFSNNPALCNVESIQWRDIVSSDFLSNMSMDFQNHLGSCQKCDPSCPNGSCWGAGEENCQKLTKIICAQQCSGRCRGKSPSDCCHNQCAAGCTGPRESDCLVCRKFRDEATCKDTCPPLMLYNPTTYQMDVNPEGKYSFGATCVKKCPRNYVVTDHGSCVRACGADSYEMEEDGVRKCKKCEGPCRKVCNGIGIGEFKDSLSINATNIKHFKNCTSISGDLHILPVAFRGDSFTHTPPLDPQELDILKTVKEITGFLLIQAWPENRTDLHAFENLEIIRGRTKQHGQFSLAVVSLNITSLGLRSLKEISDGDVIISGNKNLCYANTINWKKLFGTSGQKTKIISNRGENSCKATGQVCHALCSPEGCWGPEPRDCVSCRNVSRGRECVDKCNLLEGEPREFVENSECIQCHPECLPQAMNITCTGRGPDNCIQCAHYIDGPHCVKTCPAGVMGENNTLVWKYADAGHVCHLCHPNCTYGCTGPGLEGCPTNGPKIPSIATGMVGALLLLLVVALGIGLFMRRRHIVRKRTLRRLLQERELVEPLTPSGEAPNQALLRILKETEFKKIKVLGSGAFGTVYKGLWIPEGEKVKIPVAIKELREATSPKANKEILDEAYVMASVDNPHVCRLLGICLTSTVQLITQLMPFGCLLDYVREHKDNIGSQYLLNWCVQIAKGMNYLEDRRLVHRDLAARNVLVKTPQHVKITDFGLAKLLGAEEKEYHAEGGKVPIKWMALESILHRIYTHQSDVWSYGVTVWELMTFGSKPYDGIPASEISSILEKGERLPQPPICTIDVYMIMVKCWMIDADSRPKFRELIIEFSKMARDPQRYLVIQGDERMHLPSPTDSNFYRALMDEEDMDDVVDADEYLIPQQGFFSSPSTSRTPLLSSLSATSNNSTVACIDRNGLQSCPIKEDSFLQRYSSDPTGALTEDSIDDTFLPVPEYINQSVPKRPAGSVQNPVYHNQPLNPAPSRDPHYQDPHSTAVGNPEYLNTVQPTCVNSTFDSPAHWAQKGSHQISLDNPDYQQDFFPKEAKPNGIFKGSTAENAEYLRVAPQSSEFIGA

Structure (SMILES) | IC50 [1] | IC50 [2]
COc1cc2ncnc(Nc3ccc(C(=O)/C=C/c4ccc(Cl)cc4)cc3)c2cc1OC [(E)-3-(4-Chlorophenyl)-1-{4-[(6,7-dimethoxyquinazolin-4-yl)amino]phenyl}prop-2-en-1-one] | 98800 nM | 2580 nM
N#Cc1c(-c2ccc(F)cc2)cc(-c2ccc(Nc3ncnc4ccccc34)cc2)[nH]c1=N [HER2/EGFR dual kinase inhibitor, 5d] | 3980 nM | 2090 nM
COc1cc2ncnc(Nc3ccc(-c4cc(-c5ccc(Br)cc5)c(C#N)c(=N)[nH]4)cc3)c2cc1OC [HER2/EGFR dual kinase inhibitor, 5e] | 1040 nM | 1930 nM
